Data set [1] concerns Hepatitis C virus. As to the kind of experiment: Antiviral activity against Hepatitis C virus isolate con1 1b infected in human hepatoma cells replicon cells after 3 days by RT-PCR analysis. In kind it is functional, organism-based, Hepacivirus hominis, genotype 1b Con1. The settings on record: Hepatitis C virus, genotype 1b Con1, 72 h.
The nature of data set [2]: Cytotoxicity against human hepatoma cells after 3 days by MTS assay. In kind it is cell-based. The settings on record: human hepatoma cells.
A short description of data set [3]: Cytotoxicity against human hepatoma cells assessed as decrease in RNA level after 3 days by RT-PCR analysis. The settings on record: human hepatoma cells. In kind it is cell-based.
Data set [4] is described as follows: AUC (0 to 6 hrs) in rat at 10 mg/kg, po. The settings on record: plasma. In kind it is ADME, organism-based. Further details: time < 6 hr, dose 10 mg/kg, route oral.
The subject of data set [5] is Liver. As to the kind of experiment: Drug uptake in rat liver per mg tissue at 10 mg/kg, po after 6 hrs. In kind it is ADME, organism-based. Further details: dose 10 mg/kg, route oral. The settings on record: in vivo.

Each structure is given as a SMILES string.

As usually defined, the EC50 is the concentration at which the effect is half-maximal. Higher therefore signals weaker potency. As usually defined, the CC50 is the concentration giving 50% cytotoxicity. In general, AUC(0-t) refers to exposure summed from dosing to a finite time, without extrapolation to infinity. Lower therefore signals low exposure.

The compound `Nc1nc(Cl)c(-c2ccccc2)c(N[C@@H]2C[C@H](CO)[C@@H](O)[C@H]2O)n1` yielded an EC50 in data set [1] of more than 25 µM. This compound gave a CC50 at 72 h in data set [2] of more than 25 µM.

Take `Nc1nc(Cl)c(-c2ccccn2)c(N[C@@H]2C[C@H](CO)[C@@H](O)[C@H]2O)n1`: in data set [1], the EC50 is more than 25 µM. Moreover, the CC50 at 72 h in data set [2] and in data set [3] was more than 25 µM in each case.

In turn, `Nc1nc(Cl)c(-c2cnccn2)c(N[C@@H]2C[C@H](CO)[C@@H](O)[C@H]2O)n1` returned an EC50 in data set [1] of more than 25 µM. In addition, the CC50 at 72 h in data set [2] was more than 25 µM.

In turn, `Nc1nc(Cl)c(-c2ccco2)c(N[C@@H]2C[C@H](CO)[C@@H](O)[C@H]2O)n1` came in with an EC50 in data set [1] of 4 µM. In addition, the CC50 at 72 h in data set [2] and in data set [3] was more than 25 µM each time.

In the case of `Nc1nc(Cl)c(-c2cccs2)c(N[C@@H]2C[C@H](CO)[C@@H](O)[C@H]2O)n1`, in data set [1], the EC50 was more than 25 µM. In data set [3], the CC50 at 72 h was more than 25 µM.

For the compound `Nc1nc(Cl)c(-c2ncco2)c(N[C@@H]2C[C@H](CO)[C@@H](O)[C@H]2O)n1`, the EC50 in data set [1] is more than 25 µM. The CC50 at 72 h in data set [2] and in data set [3] was more than 25 µM each time.

In data set [1], `Nc1nc(Cl)c(-c2nccs2)c(N[C@@H]2C[C@H](CO)[C@@H](O)[C@H]2O)n1` returned a half-maximal effective concentration (EC50) of 3 µM. Further, the CC50 at 72 h in data set [2] and in data set [3] was more than 25 µM in each case.

For `Nc1nc(Cl)c(-c2cc3ccccc3[nH]2)c(N[C@@H]2C[C@H](CO)[C@@H](O)[C@H]2O)n1`, the EC50 in data set [1] came out at 7 µM. Moreover, half-maximal cytotoxicity in data set [2] (CC50 at 72 h) was put at 25 µM.

Consider `Nc1nc(Cl)c(-c2cc3ccccc3o2)c(N[C@@H]2C[C@H](CO)[C@@H](O)[C@H]2O)n1`, for which the EC50 in data set [1] worked out at 0.3 µM. The compound also showed a CC50 at 72 h in data set [2] of more than 25 µM.

`Nc1nc(Cl)c(-c2cc3ccccc3s2)c(N[C@@H]2C[C@H](CO)[C@@H](O)[C@H]2O)n1`: in data set [1], the EC50 is more than 25 µM. Further, the half-maximal cytotoxic concentration (CC50) at 72 h in data set [3] is more than 25 µM.

For `Nc1nc(Cl)c(-c2nc3ccccc3o2)c(N[C@@H]2C[C@H](CO)[C@@H](O)[C@H]2O)n1`, the EC50 in data set [1] amounted to 0.05 µM. Moreover, the results for the CC50 at 72 h in data set [2] and in data set [3] were 15 µM and 12 µM, respectively.

For `Nc1nc(Cl)c(-c2nc3ccccc3s2)c(N[C@@H]2C[C@H](CO)[C@@H](O)[C@H]2O)n1`, in data set [1], the EC50 is 0.02 µM. Also, the values for the cytotoxic concentration (CC50) at 72 h in data set [2] and in data set [3] were 18 µM and 14 µM, respectively. Also, the AUC(0-t) at 6 h in data set [4] worked out at 80 nM·h.

Take `Nc1nc(Cl)c(-c2nc3ccc(F)cc3s2)c(N[C@@H]2C[C@H](CO)[C@@H](O)[C@H]2O)n1`: in data set [1], the half-maximal effective concentration (EC50) was 0.18 µM. Also, the CC50 at 72 h in data set [2] and in data set [3] was more than 25 µM in each case.

In the case of `Nc1nc(Cl)c(-c2nc3ccc(Cl)cc3s2)c(N[C@@H]2C[C@H](CO)[C@@H](O)[C@H]2O)n1`, in data set [1], the EC50 was 0.65 µM. In addition, the CC50 at 72 h in data set [2] was more than 25 µM; in data set [3], 16 µM.

As for `COc1ccc2nc(-c3c(Cl)nc(N)nc3N[C@@H]3C[C@H](CO)[C@@H](O)[C@H]3O)sc2c1`, in data set [1], the response was half-maximal at 0.045 µM (EC50). Further, the CC50 at 72 h in data set [2] and in data set [3] was more than 25 µM in each case.

In the case of `CCOc1ccc2nc(-c3c(Cl)nc(N)nc3N[C@@H]3C[C@H](CO)[C@@H](O)[C@H]3O)sc2c1`, in data set [1], a half-maximal effect (EC50) was put at 0.03 µM. Moreover, the values for the CC50 at 72 h in data set [2] and in data set [3] were 25 µM and more than 25 µM, respectively.

For the compound `CNc1ccc2nc(-c3c(Cl)nc(N)nc3N[C@@H]3C[C@H](CO)[C@@H](O)[C@H]3O)sc2c1`, a half-maximal response in data set [1] (EC50) required 0.05 µM. Also, the results for the CC50 at 72 h in data set [2] and in data set [3] were 16 µM and 6 µM, respectively.

In data set [1], `CNc1ccc2sc(-c3c(Cl)nc(N)nc3N[C@@H]3C[C@H](CO)[C@@H](O)[C@H]3O)nc2c1` showed an EC50 of 0.02 µM. The CC50 at 72 h in data set [2] amounted to 14 µM; in data set [3] it was 20 µM.

`CN(C)c1ccc2nc(-c3c(Cl)nc(N)nc3N[C@@H]3C[C@H](CO)[C@@H](O)[C@H]3O)sc2c1` gave a half-maximal effective concentration (EC50) in data set [1] of 1 µM. In addition, the CC50 at 72 h in data set [2] and in data set [3] was more than 25 µM in each case.

In turn, `CN(C)c1ccc2sc(-c3c(Cl)nc(N)nc3N[C@@H]3C[C@H](CO)[C@@H](O)[C@H]3O)nc2c1` registered a half-maximal effective concentration (EC50) in data set [1] of 0.035 µM. Further, the CC50 at 72 h was determined as 21 µM in data set [2] and 25 µM in data set [3].

The compound `Cc1nc(N)nc(N[C@@H]2C[C@H](CO)[C@@H](O)[C@H]2O)c1-c1nc2ccccc2s1` gave an EC50 in data set [1] of 0.13 µM. For the same compound, the results for the CC50 at 72 h in data set [2] and in data set [3] were 25 µM and 4 µM, respectively. Further, in data set [4], the AUC(0-t) at 6 h amounted to 4700 nM·h.

`CCCNc1nc(C)c(-c2nc3ccccc3s2)c(N[C@@H]2C[C@H](CO)[C@@H](O)[C@H]2O)n1`: in data set [1], it took 0.31 µM to reach a half-maximal effect (EC50). The CC50 at 72 h in data set [2] and in data set [3] was more than 25 µM throughout.

The compound `CCc1nc(N(C)C)nc(N[C@@H]2C[C@H](CO)[C@@H](O)[C@H]2O)c1-c1nc2ccccc2s1` had an EC50 in data set [1] of 13 µM. For the same compound, the CC50 at 72 h in data set [2] and in data set [3] was more than 25 µM each time.

Take `Cc1nc(NCCNC(=O)NC(C)(C)C)nc(N[C@@H]2C[C@H](CO)[C@@H](O)[C@H]2O)c1-c1nc2ccccc2s1`: the EC50 in data set [1] is 0.9 µM. Moreover, the CC50 at 72 h in data set [2] and in data set [3] was more than 25 µM each time.

`Cc1nc(NCCNS(C)(=O)=O)nc(N[C@@H]2C[C@H](CO)[C@@H](O)[C@H]2O)c1-c1nc2ccccc2s1`: the EC50 in data set [1] turned out to be 0.26 µM. Also, the CC50 at 72 h in data set [2] and in data set [3] was more than 25 µM throughout.

Compound `Cc1nc(N[C@H](C)C(F)(F)F)nc(N[C@@H]2C[C@H](CO)[C@@H](O)[C@H]2O)c1-c1nc2ccccc2s1` came in with an EC50 in data set [1] of 0.1 µM. For the same compound, the results for the CC50 at 72 h in data set [2] and in data set [3] were 19 µM and 21 µM, respectively.

As for `Cc1nc(Nc2ccncc2)nc(N[C@@H]2C[C@H](CO)[C@@H](O)[C@H]2O)c1-c1nc2ccccc2s1`, in data set [1], the EC50 stood at 0.33 µM. For the same compound, the CC50 at 72 h in data set [2] and in data set [3] was 7 µM in each case.

In the case of `Cc1nc(Nc2nccs2)nc(N[C@@H]2C[C@H](CO)[C@@H](O)[C@H]2O)c1-c1nc2ccccc2s1`, the EC50 in data set [1] is 0.77 µM. In addition, the figures for the CC50 at 72 h in data set [2] and in data set [3] were 13 µM and 15 µM, respectively.

With `Cc1nc(Nc2ncco2)nc(N[C@@H]2C[C@H](CO)[C@@H](O)[C@H]2O)c1-c1nc2ccccc2s1`, the EC50 in data set [1] came to 4.5 µM. Moreover, the CC50 at 72 h in data set [2] and in data set [3] was more than 25 µM throughout.

`Cc1nc(NCc2ccccn2)nc(N[C@@H]2C[C@H](CO)[C@@H](O)[C@H]2O)c1-c1nc2ccccc2s1` displayed an EC50 in data set [1] of 0.03 µM. The CC50 at 72 h in data set [2] turned out to be 18 µM; in data set [3] it was 13 µM. Also, the Drug uptake in data set [5] was 125 ng/g. Also, the AUC(0-t) at 6 h in data set [4] was determined as 3400 nM·h.

As to `Cc1nc(NCc2cccnc2)nc(N[C@@H]2C[C@H](CO)[C@@H](O)[C@H]2O)c1-c1nc2ccccc2s1`, the EC50 in data set [1] was 0.015 µM. Further, the CC50 at 72 h in data set [2] turned out to be 11 µM; in data set [3], 5 µM. In data set [5], this compound came in with a Drug uptake of 10 ng/g. Besides, in data set [4], the AUC(0-t) at 6 h came out at 20 nM·h.

`Cc1nc(NCc2ccncc2)nc(N[C@@H]2C[C@H](CO)[C@@H](O)[C@H]2O)c1-c1nc2ccccc2s1` came in with an EC50 in data set [1] of 0.03 µM. In addition, the 50% cytotoxic concentration (CC50) at 72 h worked out at 9 µM in data set [2] and 7 µM in data set [3]. The compound also showed a Drug uptake in data set [5] of 100 ng/g. Further, the area under the curve AUC(0-t) at 6 h in data set [4] was found to be 100 nM·h.
